Source: US20220340916A1, “METHODS FOR TRANSFORMING WHEAT EXPLANTS AND COMPOSITIONS THEREFOR” (MONSANTO TECHNOLOGY LLC, priority 2013, published 2022)

SMILES | effect of soaking WDSDEs on oxygen consumption (wheat WDSDEs) | effect on oxygen consumption when added to the reaction chamber during an oxygen measurement (wheat WDSDEs) | effect of ethanol exposure on intact seed germination on media (wheat seed; 70% ethanol, FIG. 2) | germination of intact seeds as measured by root and shoot development on media (wheat seed; sanitization treatments involving ethanol, FIG. 1) | viability of WDSDEs produced from treated seed (WDSDEs) | cleanliness of WDSDEs excised from treated seed (WDSDEs; seed sanitization, 10% Clorox bleach, ethanol used cold (~0° C.))
O=C(NO)c1ccccc1O [SHAM, salicylhydroxamic acid] | No effect | Very little effect |  |  |  | 
CCO [ethanol] |  |  | time-dependent effect | reduced germination | acceptable | less efficient
